Reference: patent US5547972A, “Therapeutic agents useful for treating inflammatory diseases” (The Boots Company PLC, priority 1991, dated 1996)
pIC50: −log10 of the molar value. Where a name gives a salt, the structure may show the parent alone. Read-outs that look alike come from different tables or passages of the source.

Experiments:
[1] = alleged in literature; cited from earlier work
mice = conditions: in mice; cited from earlier work
platelet aggregation = conditions: in vitro; Il Farmaco, 44 (5), 495-502, 1989; cited from earlier work
[2] = system: Zymosan Stimulated Macrophaqes; assay: Test A: Inhibition of Arachidonic Acid Release from Zymosan Stimulated Macrophages; assay type: cell-based, mouse (female MF1); conditions: read-out: Test A IC50
Method in brief: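 Peritoneal macrophages from female MF1 mice, labelled overnight with [3H]-arachidonic acid (1.6 μCi/ml final), adherent cells pretreated 24 h with drug, then stimulated 5 h with fresh drug plus stimulus at 37° C. Released label counted by scintillation; net stimulated release inhibition at 1–100 μM gives IC50.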

[3] = system: Carrageenan-induced rat paw oedema; assay: Test B: Carrageenan-induced rat paw oedema test; assay type: in vivo, rat (female); conditions: inhibition of paw oedema, 1 h before carrageenan, 3 h after injection; for Test B % inhibition at 100 mg/kg: oral; for inhibition in vivo at 100 mg/kg: Rattus norvegicus, po, 3 h
Description: Carrageenan-induced rat paw oedema test
Female rats, weight range 125-150 g were fasted overnight. One of the hind legs of each animal was marked with a line at the connection between the cuboid/navicular and calcaneus/talus bones. Groups of six rats were orally dosed at 10 ml/kg, in random order, with a given dose of the test compound given as a solution or suspension in 10% (w/v) aqueous acacia solution.
One hour after dosing, 0.1 ml of 1% (w/v) sterile carrageenan λ in normal saline was injected deeply into the plantar surface of the marked hind foot of each rat. The volume of the foot (up to the marked line) was measured immediately after injection using duplicate water displacement readings. Three hours after injection the foot volume was measured again and the percentage increase in foot volume relative to the initial reading was calculated.
The increase in foot volume (i.e. the degree of oedema) in drug treated animals when compared with that in the drug untreated control gave the degree of inhibition of paw oedema by the drug.
Compounds were considered to be active in this test if they produced a 20% or greater inhibition of paw oedema in at least two out of three tests after oral dosing at 100 mg/kg. Statistical significance was assessed using the Student't test for single dose studies and Dunnett's test for multiple dose studies. More advantageous compounds were active in both Tests A and B,

[4] = Mus musculus, Macrophage, 5 h, inhibition of arachidonic acid release, six concentrations (100, 50, 20, 10, 5 and 1 μM), 5 h with zymosan

SMILES	pIC50 [2, 4]	inhibition in vivo at 100 mg/kg [3]	further results
CCC(NCC(C)N1CCOCC1)c1ccc(Cl)c(Cl)c1 (stereo not drawn) [N-[2-(4-Morpholino)propyl]-α-ethyl-3,4-dichlorobenzylamine]			antiinflammatory activity [1]: antiinflanmmtory activity; undesirable side-effects (mice): wide range of undesirable side-effects in mice
CC(CCn1ccnc1)NCc1ccccc1 (stereo not shown) [Compound A]			inhibitory effect on platelet aggregation (platelet aggregation): inhibitory effect on platelet aggregation in vitro
CC(C)(NCCCn1ccnc1)c1ccc(Cl)cc1.Cl.Cl [68 (2), N-[1-(4-chlorophenyl)-1-methylethyl]-3-(imidazol-1-yl)propylamine dihydrochloride]			pIC50 ([2]; inhibition of arachidonic acid release, six concentrations (100, 50, 20, 10, 5 and 1 μM), 5 h with zymosan, dihydrochloride): 4.37; Test B % inhibition at 100 mg/kg [3]: 70%
CC(NCCCn1ccnc1)c1ccc(Cl)cc1 (single isomer, unassigned; (-)) [Example 92, (-) N-[1-(4-chlorophenyl)ethyl]-3-(imidazol-1-yl)propylamine (-)-ditartrate]			pIC50 ([2]; inhibition of arachidonic acid release, six concentrations (100, 50, 20, 10, 5 and 1 μM), 5 h with zymosan): 4.70; Test B % inhibition at 100 mg/kg [3]: 48%
CC(NCCCn1ccnc1)c1ccccc1Cl (stereo not shown) [Example 8, N-[1-(2-Chlorophenyl)ethyl]-3-(imidazol-1-yl)propylamine]	4.04	55%	
Cc1cn(CCCNC(C)c2ccc(Cl)cc2)c(C)n1 (stereo not shown) [Example 31, N-[1-(4-chlorophenyl)ethyl]-3-(2,4-dimethylimidazol-1-yl)propylamine dihydrochloride]	5.00	25%	
Cc1nccn1CCCNC(C)(C)c1ccc(Cl)cc1 [Example 60, N-[1-(4-chlorophenyl)-1-methylethyl]-3-(2-methylimidazol-1-yl)propylamine]	5.05	59%	
CC(NCCCn1ccnc1)c1ccc(OCc2ccccc2)cc1 (stereo not shown) [Example 5, N-[1-(4-Benzyloxyphenyl)ethyl]-3-(imidazol-1-yl)propylamine]	4.92	5%	
Clc1ccc(CNCCCn2ccnc2)c(Cl)c1 [Example 41, N-(2,4-Dichlorobenzyl)-3-(imidazol-1-yl)propylamine]	4.24	29%	
CC(NCCCCCn1ccnc1)c1ccc(Cl)cc1 (stereo not shown) [Example 55, N-[1-(4-Chlorophenyl)ethyl]-5-(imidazol-1-yl)pentylamine dioxalate]	4.49	45%	
COc1cc(C)c(CNCCCn2ccnc2)c(C)c1 [Example 50, 3-(imidazol-1-yl)-N-(4-methoxy-2,6-dimethylbenzyl)propylamine dihydrochloride]	4.51	0%	
CC(NCCCn1ccnc1)c1ccc(Oc2ccccc2)cc1 (stereo not shown) [Example 16, 3-(Imidazol-1-yl)-N-[1-(4-phenoxyphenyl)ethyl]propylamine]		9%	pIC50 ([2]; Mus musculus, Macrophage, 5 h): 5.10
CC(=O)OCc1ncn(CCCNC(C)(C)c2ccc(Cl)cc2)c1C [Example 98, 1-{3-[1-(4-chlorophenyl)-1-methylethylamino]propyl}-5-methylimidazol-4-ylmethyl acetate dihydrochloride]	4.35	4%	
Clc1ccc(CNCCCn2ccnc2)cc1Cl [Example 35, N-(3,4-dichlorobenzyl)-3-(imidazol-1-yl)propylamine]	4.68	47%	
Cc1ccc(C(C)(C)NCCCn2ccnc2C)cc1 [Example 73, 3-(2-Methylimidazol-1-yl)-N-[1-methyl-1-(p-tolyl)ethyl]propylamine dihydrochloride]	4.31	8%	
Cc1cc(Cl)ccc1CNCCCn1ccnc1 [Example 40, N-(4-Chloro-2-methylbenzyl)-3-(imidazol-1-yl)propylamine dihydrochloride]	4.30	31%	
